# Laboratory results as given in patent US9493416B2, “N-methyl-4-benzylcarbamidopyridinium chloride and a process for its preparation” (Farmak International Holding GmbH, priority 2012, dated 2016).
# Test: Active ingredient release (dissolution) profile from solid gelatine capsules in pharmacopeial buffer solutions
# Assay type: physicochemical
# Settings: for released faster than FAV00A-Io by: 370.6 mg capsules vs FAV00A-Io 500 mg capsules
# Method: Results of comparative studies of active ingredient release profiles from a drug formulated as solid gelatine capsules using two salts of N-methyl-4-benzylcarbamidopyridine, namely the chloride and iodide salts labelled “FAV00A-Cl” and “FAV00A-Io” hereinafter.
# In order to assess the FAV00A-Cl substance release rate from a finished medicinal product, studies of active ingredient release profiles were carried out for FAV00A-Cl 370.6 mg capsules, in 3 reference pharmacopeial buffer solutions with pH 1.2, 4.5, 6.8 and typical measurement conditions (1000 ml of 0.1M HCl; 100 rpm (basket); 1000 ml of acetate buffer solution pH 4.5; 100 rpm (basket); 1000 ml of phosphate buffer solution pH 6.8; 100 rpm (basket), respectively). Study results were compared against FAV00A-Io 500 mg capsules (with consideration of molecular weights of FAV00A-Cl and FAV00A-Io substances: the dosage of FAV00A-Cl substance 370.6 mg is equivalent to the dosage of FAV00A-Io substance 500 mg). The iodide salt FAV00A-Io used in the study was the α-crystalline form of amizon as described in applicant's co-pending patent applications WO 2011/158058 and WO 2011/157743.
smiles,measurement,setting,value
"C[n+]1ccc(C(=O)NCc2ccccc2)cc1.[Cl-] [FAV00A-Cl, N-methyl-4-benzylcarbamidopyridinium chloride]",released faster than FAV00A-Io by,"0.1M HCl, 5-th minute",40%
same,released faster than FAV00A-Io by,"0.1M HCl, 10-th minute",20%
same,Dissolution classification of the product,based on release in 15 min of more than 85%,rapidly dissolving
same,released faster than FAV00A-Io by,"buffer solution with pH 4.5, 5-th minute",25%
same,released faster than FAV00A-Io by,"buffer solution with pH 4.5, 10-th minute",10%
same,released faster than FAV00A-Io by,"buffer solution with pH 6.8, 5-th minute",25%
same,released faster than FAV00A-Io by,"buffer solution with pH 6.8, 10-th minute",15%
same,Release of substance from finished medicinal product in 15 min,"in 15 min, 3 reference pharmacopoeial buffer solutions (pH 1.2, 4.5, 6.8)",more than 85%
